Results as given in US8916708B2, “Urea derivatives and their therapeutic use in the treatment of, inter alia, diseases of the respiratory tract” (Chiesi Farmaceutici S.p.A., priority 2010, dated 2014).

Legend:
[1] = biological target: T1, Human recombinant p38 enzyme (p38α) (Homo sapiens, UniProt Q16539); assay: p38 Kinase Assay (ATF-2 phosphorylation ELISA); format: biochemical; conditions: 2h pre-incubation with p38 kinase, ATP 250 μM, 1% DMSO; read-out: p38α inhibition (IC50)
T1 construct: purchased Calbiochem 559324; host or cells: E. coli
Protocol: Human recombinant p38 enzyme expressed in E. coli and activated by incubation with MKK6 enzyme (Calbiochem #559324) is used as source of enzyme activity.
The assay is carried in high binding, clear, flat bottom 96 well assay plates which have been coated with recombinant ATF-2 (Biosource #PHF0043). Test compounds are incubated with p38 kinase for 2h prior to initiating the kinase assay by the addition of ATP to obtain an assay concentration of 250 μM . Phosphorylation of ATF-2 is detected and quantified using an ELISA. This consists of sequential incubation in the presence of anti-phospho-ATF2, biotinylated anti-IgG and streptavidin-HRP. Incubation with an HRP chromogenic substrate (TMB) results in absorbance that is proportional to the amount of phosphorylated substrate produced. Absorbance is detected using a multiwell plate reader.
Compounds are diluted in DMSO prior to addition to assay buffer, the final DMSO concentration in the assay being 1%.
The IC50 is defined as the concentration at which a given compound achieves 50% inhibition of control.

[2] = system: LPS activated THP-1 cells (TNFα release); assay: p38 Functional Assay: TNFα release from LPS activated THP-1 cells; format: cell-based; conditions: Homo sapiens, inhibition of TNFα release, 1h pre-treatment then LPS, 0.3% DMSO
Protocol: Inhibition of cellular p38 depresses the release of TNFα, a functional response which is quantified by measurement of the amount of TNFα in the supernatants of LPS activated THP-1 cells (an immortalised monocytic cell line) or peripheral blood mononuclear cells (PBMC's) isolated from freshly drawn human blood.
Cells seeded in 96 well plates are pre-treated by the addition of p38 inhibitors for 1h followed by addition of lipopolysaccharide (LPS) to activate cytokine production and release. The amount of TNFα released into the cell supernatants is quantified using an R&D Systems enzyme linked immunosorbant assay (ELISA) kit (product DY210) following the manufacturers instructions.
Compounds are diluted in DMSO prior to addition, the final DMSO concentration in the assay being 0.3%. The EC50 is defined as the concentration at which a given compound achieves 50% inhibition of the control.

T1 sequence (Q16539 whole entry): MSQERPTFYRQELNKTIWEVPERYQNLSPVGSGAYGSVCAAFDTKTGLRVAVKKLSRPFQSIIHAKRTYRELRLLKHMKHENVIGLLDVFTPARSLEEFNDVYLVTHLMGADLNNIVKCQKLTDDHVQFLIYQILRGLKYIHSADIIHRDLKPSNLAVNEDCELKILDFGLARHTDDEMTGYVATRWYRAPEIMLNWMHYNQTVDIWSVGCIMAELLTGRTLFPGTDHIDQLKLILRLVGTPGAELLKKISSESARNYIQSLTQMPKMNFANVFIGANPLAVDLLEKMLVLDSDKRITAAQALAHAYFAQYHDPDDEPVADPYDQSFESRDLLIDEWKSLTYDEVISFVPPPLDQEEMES

Structure (SMILES) | IC50 [1] [nM] | EC50 [2] [nM]
Cc1ccc(-n2nc(C(C)(C)C)cc2NC(=O)N[C@H]2CCC[C@@H](Oc3ccc4nnc(C(C)C)n4c3)c3ccccc32)cc1 (racemic) [Example 18, (+/−) 1-(5-tert-Butyl-2-p-tolyl-2H-pyrazol-3-yl)-3-[9-(3-isopropyl-[1,2,4]triazolo[4,3-a]pyridin-6-yloxy)-cis-6,7,8,9-tetrahydro-5H-benzocyclohepten-5-yl]-urea] | 10 to 100 | –
COCC(=O)Nc1cc(CO[C@H]2CC[C@H](NC(=O)Nc3cc(C(C)(C)C)nn3-c3ccc(C)cc3)c3ccccc32)ccn1 [Example 22, N-(4-{(1S,4S)-4-[3-(5-tert-Butyl-2-p-tolyl-2H-pyrazol-3-yl)-ureido]-1,2,3,4-tetrahydro-naphthalen-1-yloxymethyl}-pyridin-2-yl)-2-methoxy-acetamide] | < 10 | –
Cc1ccc(-n2nc(C(C)(C)C)cc2NC(=O)N[C@@H]2C[C@H](Oc3ccc4nnc(C(C)C)n4c3)c3ccccc32)cc1 [Example 14, 1-(5-tert-Butyl-2-p-tolyl-2H-pyrazol-3-yl)-3-[(1R,3S)-3-(3-isopropyl-[1,2,4]-triazolo[4,3-a]pyridin-6-yloxy)-indan-1-yl]-urea] | 500 to 7000 | –
Cc1ccc(-n2nc(C(C)(C)C)cc2NC(=O)N[C@H]2CC[C@@H](Oc3ccc4nnc(-c5c(Cl)cccc5Cl)n4c3)c3ccccc32)cc1 (racemic) [Example 4, (+/−)1-(5-tert-Butyl-2-p-tolyl-2H-pyrazol-3-yl)-3-{4-[3-(2,6-dichloro-phenyl)[1,2,4]triazolo[4,3-a]pyridin-6-yloxy]-cis-1,2,3,4-tetrahydro-naphthalen-1-yl}-urea] | < 10 | < 10
Cc1ccc(-n2nc(C(C)(C)C)cc2NC(=O)N[C@H]2CC[C@H](Oc3ccc4nnc(C(C)C)n4c3)c3ccccc32)cc1 (racemic) [Example 2, (+/−) 1-(5-tert-Butyl-2-p-tolyl-2H-pyrazol-3-yl)-3-[4-(3-isopropyl[1,2,4]triazolo[4,3-a]pyridin-6-yloxy)-trans-1,2,3,4-tetrahydro-naphthalen-1-yl]-urea] | < 10 | < 10
CC(C)c1nnc2ccc(O[C@H]3CC[C@H](NC(=O)Nc4cc(C(C)(C)C)on4)c4ccccc43)cn12 [Example 16, 1-(5-tert-Butyl-isoxazol-3-yl)-3-[(1S,4S)-4-(3-isopropyl-[1,2,4]-triazolo[4,3-a]pyridin-6-yloxy)-1,2,3,4-tetrahydro-naphthalen-1-yl]-urea] | < 10 | –
CC(C)c1nnc2ccc(O[C@@H]3CC[C@H](NC(=O)Nc4cc(C(C)(C)C)on4)c4ccccc43)cn12 (racemic) [Example 6, (+/−) 1-(5-tert-Butyl-isoxazol-3-yl)-3-[4-(3-isopropyl-[1,2,4]triazolo[4,3-a]pyridin-6-yloxy)-cis-1,2,3,4-tetrahydro-naphthalen-1-yl]-urea] | < 10 | < 10
Cc1ccc(-n2nc(C(C)(C)C)cc2NC(=O)N[C@H]2CCC[C@H](Oc3ccc4nnc(C(C)C)n4c3)c3ccccc32)cc1 (racemic) [Example 19, (+/−) 1-(5-tert-Butyl-2-p-tolyl-2H-pyrazol-3-yl)-3-[9-(3-isopropyl-[1,2,4]triazolo[4,3-a]pyridin-6-yloxy)-trans-6,7,8,9-tetrahydro-5H-benzocyclohepten-5-yl]-urea] | 10 to 100 | –
Cc1ccc(-n2nc(C(C)(C)C)cc2NC(=O)N[C@H]2C[C@@H](Oc3ccc4nnc(C(C)C)n4c3)c3ccccc32)cc1 [Example 15, 1-(5-tert-Butyl-2-p-tolyl-2H-pyrazol-3-yl)-3-[(1S,3R)-3-(3-isopropyl-[1,2,4]triazolo[4,3-a]pyridin-6-yloxy)-indan-1-yl]-urea] | 500 to 7000 | –
Cc1ccc(-n2nc(C(C)(C)C)cc2NC(=O)N[C@H]2C[C@H](Oc3ccc4nnc(C(C)C)n4c3)c3ccccc32)cc1 [Example 13, 1-(5-tert-Butyl-2-p-tolyl-2H-pyrazol-3-yl)-3-[(1S,3S)-3-(3-isopropyl-[1,2,4]triazolo[4,3-a]pyridin-6-yloxy)-indan-1-yl]-urea] | < 10 | –
Cc1ccc(-n2nc(C(C)(C)C)cc2NC(=O)N[C@H]2CC[C@@H](Oc3ccc4nnc(-c5ccccc5OCc5ccccc5)n4c3)c3ccccc32)cc1 (racemic) [Example 5] | 10 to 100 | –
Cc1ccc(-n2nc(C(C)(C)C)cc2NC(=O)N[C@@H]2CC[C@H](Oc3ccc4nnc(C(C)C)n4c3)c3ccccc32)cc1 [Example 9, 1-(5-tert-Butyl-2-p-tolyl-2H-pyrazol-3-yl)-3-[(1R,4S)-4-(3-isopropyl-[1,2,4]triazolo[4,3-a]pyridin-6-yloxy)-1,2,3,4-tetrahydro-naphthalen-1-yl]-urea] | 100 to 500 | –
Cc1ccc(-n2nc(C(C)(C)C)cc2NC(=O)N[C@H]2CC[C@@H](Oc3ccc4nnc(C(C)C)n4c3)c3ccccc32)cc1 (racemic) [Example 1, (+/−) 1-(5-tert-Butyl-2-p-tolyl-2H-pyrazol-3-yl)-3-[4-(3-isopropyl-[1,2,4]-triazolo[4,3-a]pyridin-6-yloxy)-cis-1,2,3,4-tetrahydro-naphthalen-1-yl]-urea] | < 10 | < 10
Cc1ccc(-n2nc(C(C)(C)C)cc2NC(=O)N[C@H]2CC[C@@H](Oc3ccc4nnc(-c5ccccc5Cl)n4c3)c3ccccc32)cc1 (racemic) [Example 3, (+/−)1-(5-tert-Butyl-2-p-tolyl-2H-pyrazol-3-yl)-3-{4-[3-(2-chloro-phenyI)-[1,2,4]triazolo[4,3-a]pyridin-6-yloxy]-cis-1,2,3,4-tetrahydro-naphthalen-1-yl}-urea] | < 10 | < 10

Second part, the compound after the results:

IC50 [1] [nM] | EC50 [2] [nM] | Structure (SMILES)
100 to 500 | – | Cc1ccc(-n2nc(C(C)(C)C)cc2NC(=O)N[C@@H]2C[C@@H](Oc3ccc4nnc(C(C)C)n4c3)c3ccccc32)cc1 [Example 12, 1-(5-tert-Butyl-2-p-tolyl-2H-pyrazol-3-yl)-3-[(1R,3R)-3-(3-isopropyl[1,2,4]triazolo[4,3a]pyridin-6-yloxy)-indan-1-yl]urea]
< 10 | < 10 | Cc1ccc(-n2nc(C(C)(C)C)cc2NC(=O)N[C@H]2CC[C@@H](Oc3ccc4nnc(-c5ccccc5O)n4c3)c3ccccc32)cc1 (racemic) [Example 7, (+/−) 1-(5-tert-Butyl-2-p-tolyl-2H-pyrazol-3-yl)-3-{4-[3-(2-hydroxy-phenyl) [1,2,4]triazolo[4,3-a]pyridin-6-yloxy]-cis-1,2,3,4-tetrahydro-naphthalen-1-yl}-urea]
< 10 | – | COc1c(NC(=O)N[C@H]2CC[C@H](Oc3ccc4nnc(C(C)C)n4c3)c3ccccc32)cc(C(C)(C)C)cc1NS(C)(=O)=O [Example 17, N-(5-tert-Butyl-3-{3-[(1S,4S)-4-(3-isopropyl-[1,2,4]triazolo[4,3-a]pyridin-6-yloxy)-1,2,3,4-tetrahydro-naphthalen-1-yl]-ureido}-2-methoxy-phenyl)-methanesulfonamide]
< 10 | < 10 | Cc1ccc(-n2nc(C(C)(C)C)cc2NC(=O)N[C@H]2CC[C@H](Oc3ccc4nnc(C(C)C)n4c3)c3ccccc32)cc1 [Example 11, 1-(5-tert-Butyl-2-p-tolyl-2H-pyrazol-3-yl)-3-[(1S,4S)-4-(3-isopropyl-[1,2,4]triazolo[4,3-a]pyridin-6-yloxy)-1,2,3,4-tetrahydro-naphthalen-1-yl]-urea]
100 to 500 | – | Cc1ccc(-n2nc(C(C)(C)C)cc2NC(=O)N[C@@H]2CC[C@@H](Oc3ccc4nnc(C(C)C)n4c3)c3ccccc32)cc1 [Example 8, 1-(5-tert-Butyl-2-p-tolyl-2H-pyrazol-3-yl)-3-[(1R,4R)-4-(3-isopropyl-[1,2,4]triazolo[4,3-a]pyridin-6-yloxy)-1,2,3,4-tetrahydro-naphthalen-1-yl]-urea]
< 10 | < 10 | Cc1ccc(-n2nc(C(C)(C)C)cc2NC(=O)N[C@H]2CC[C@@H](Oc3ccc4nnc(C(C)C)n4c3)c3ccccc32)cc1 [Example 10, 1-(5-tert-Butyl-2-p-tolyl-2H-pyrazol-3-yl)-3-[(1S,4R)-4-(3-isopropyl-[1,2,4]triazolo[4,3-a]pyridin-6-yloxy)-1,2,3,4-tetrahydro-naphthalen-1-yl]-urea]
< 10 | – | Cc1ccc(-n2nc(C(C)(C)C)cc2NC(=O)N[C@H]2CC[C@H](Oc3ccc4nnc(-c5ccccc5SCCO)n4c3)c3ccccc32)cc1 [Example 20, 1-(5-tert-Butyl-2-p-tolyl-2H-pyrazol-3-yl)-3-((1S,4S)-4-{3-[2-(2-hydroxy-ethylsulfanyl)-phenyl]-[1,2,4]triazolo[4,3-a]pyridin-6-yloxy}-1,2,3,4-tetrahydro-naphthalen-1-yl)-urea]
